# In patent US20120190788A1, “COLORING PARTICLES” (CANON KABUSHIKI KAISHA, priority 2011, published 2012):
# Key:
# [1] = in water; cited from earlier work
# [2] = physchem; settings: 25 °C
# Text: Fine and highly monodispersed coloring particles intended according to aspects of the present invention may contain a dye hardly soluble in the water contained in the second liquid described later. […] The solubility parameter of the dye, however, may vary depending on the pH of the water containing it.
# The solubility parameter used according to aspects of the present invention can be calculated by measuring the degree of water solubility (mol/L) of the dye by any known experimental method and then substituting the measurement into equation (1). […] For dyes such as metal complex dyes and salt dyes, the metal or salt is first removed, and then the degree of solubility is calculated using ACD/Structure Design Suite and the solubility parameter is calculated from the value.
SMILES,Critical micelle concentration [1] [g/mL],"solubility ([2]; pH 6, aqueous buffer) [nM]","solubility ([2]; pH 11, aqueous buffer) [nM]"
CCCCCCCCCCCCOS(=O)(=O)[O-].[Na+] [sodium dodecyl sulfate],0.0025,,
Cc1cc(Br)c(Nc2ccc(O)c3c2C(=O)c2ccccc2C3=O)c(Br)c1 [dye 4],,0.794,813
Cc1cccc(Nc2cccc3c2C(=O)c2cccc(Nc4cccc(C)c4)c2C3=O)c1 [dye 2],,≤ 0.631,
CC1(C)Nc2cccc3c(/N=N/c4ccc(/N=N/c5ccccc5)c5ccccc45)ccc(c23)N1 [dye 1],,≤ 0.631,
